According to patent US8569259B2, “Adenosine analogs and their use” (Microdose Therapeutx, Inc., priority 2006, dated 2013):
Like-named read-outs stand apart in the source and are kept apart here.

What was measured:
P2Y2 receptor = target: T1, P2Y2 receptor (Homo sapiens, UniProt P41231); experiment: IP1 accumulation assay (kit IP-one HTRF); assay type: cell-based
T1 construct: host or cells: cells not identified for the IP1 assay
Method: The compounds described herein may be tested for their ability to elicit P2Y2 receptor activity using in vitro IP1 accumulation, intracellular calcium mobilization, mucus production and ciliary beat frequency assays, ex vivo Short Current Circuit and fluid transport assays for P2Y2 and other P2Y receptor activity assays, as described below.
Cells in midlog phase are collected with PBS-EDTA, washed and resuspended in medium without antibiotics at a concentration of 2×10^5 cells/ml. Cells (200 μL or 40.000 cells) are then distributed into a 96 well plate (Cellstar, Greiner, 655083). The plate is incubated overnight at 37° C. in a cell culture incubator. The next morning, the medium is removed and replaced by 50 μL of agonist diluted in the stimulation buffer provided with the kit IP-one (CisBio, 621P1PEB). The plate is incubated for 1 h at 37° C. in a cell culture incubator. 25 μL of the antibody diluted in lysis buffer is then added to each well. 25 μL of the IP1-d2 diluted in lysis buffer is added to each well and the plate is incubated for 1 h. at room temperature. The plate is then read on a Rubystar and dose-response curves are generated by plotting the ligand concentrations versus the DeltaF ratio.
EC50 values for certain compounds were obtained through an IP1 accumulation assay (kit IP-one HTRF), as described above.

male Balb/C mice [1] = experiment: Total gastrointestinal transit, carmine red dye meal, time to first red pellet and feces weight; assay type: in vivo; details: oral gavage 5 and 50 mg/kg
Method: Briefly, mice were administered a meal containing a non-absorbable red dye (carmine) and were monitored for 3 hours. Feces were collected and time of expulsion was recorded. Feces were weighed fresh and again after overnight drying. Time to first red-colored feces was used as a measure of total GI transit time. Total weight of wet and dry feces was used as a measure of fluid secretion.
Male Balb/C mice were fasted overnight with free access to water. They were then given access to food and water for 30 minutes. They were finally moved to empty plastic cages with no access to food or water. After 1 hour, each mouse was fed a liquid meal of 0.5% methylcellulose (weight-to-volume w/v) in water containing 3% carmine dye (w/v) as well as doses of the test compound at 5 and 50 mg/kg (10 mL/kg) with a gavage needle. Control animals received vehicle only. Each animal was held in an individual cage for the following 3 hours. The expulsion time of each feces was recorded to the nearest 5 seconds. Each feces was placed in a tared vial and the vial was capped. Fresh feces were weighed and the vials were kept uncapped overnight at 37° C. The feces were then weighed again. Average times to first red-colored feces for vehicle- and compound-dosed animals were compared using a Student's t-test (two-sided, unequal variance). A P-value of 0.05 or less was considered statistically significant. […]

male Balb/C mice [2] = experiment: Gastric retention and small intestine transit, 30 min after Tc-sulfur colloid meal; assay type: in vivo; details: 30 min after meal, tegaserod 0.1 mg/kg ip, lubiprostone 0.1 mg/kg oral, compound C 50 mg/kg oral; for geometric center (GC) of the small intestine: 1-way ANOVA or Student's t-test, FIG. 3; for stomach retention, percentage of total radioactivity left in the stomach: FIG. 5
Method: Male Balb/C mice were fasted overnight with free access to water. Water was then removed for 30 minutes. Each mouse was subsequently gavaged a liquid meal of 0.5% methylcellulose (weight-to-volume w/v) and 10% corn oil (volume-to-volume v/v) in water containing 5-10 μCi of an non-absorbable Tc-sulfur colloid radioactive marker as well as compound C at doses between 2 and 50 mg/kg (10 mL/kg), or lubiprostone at 100 μg/kg. A group was dosed with tegaserod (100 μg/kg) injected ip just prior to receiving vehicle by oral gavage. Control animals received vehicle only. Animals were euthanized 30 minutes after dosing and their GI tract was excised from the stomach down. The stomach was counted alone. The small intestine was extended and cut into 10 equally sized pieces, labeled 1 to 10 from stomach to caecum. Each piece of the small intestine, and the stomach, were counted for radioactivity. The geometric center (GC) of the small intestine was calculated according to GC=(Σ(i×Ci))/(ΣCi), where i is the label of the segment (from 1 to 10) and Ci is the number of counts. GC is a number between 1 and 10. The closer GC is to 10, the faster the small intestinal transit. Gastric retention was calculated as percent of total dose counted. GC's and gastric retentions were compared between dose and vehicle groups using a Student's t-test. A P-value of less than 0.05 was considered statistically significant, as depicted in FIGS. 3-5.

male Balb/C mice [3] = experiment: Large intestine transit, 2.5 hr after Tc-sulfur colloid meal; assay type: in vivo; details: 2.5 hr after meal; for gastric retention (percentage of total radioactivity left in stomach): compound C up to 50 mg/kg oral, lubiprostone 0.1 mg/kg oral, FIG. 6
Method: Male Balb/C mice were fasted overnight with free access to water. Water was then removed for 30 min. Each mouse was subsequently gavaged a liquid meal of 0.5% methylcellulose (weight-to-volume w/v) and 10% corn oil (volume-to-volume v/v) in water containing 5-10 μCi of an non-absorbable Tc-sulfur colloid radioactive marker containing the compound C at doses of 5, 10 and 50 mg/kg (10 mL/kg), or lubiprostone at 100 μg/kg. A group was dosed with tegaserod (100 μg/kg) injected ip just prior to receiving vehicle by oral gavage. Control animals received vehicle only. Animals were kept for 30 minutes in empty cages then given access to food and water at libitum. They were euthanized 2.5 hours after dosing and their GI tract was excised from the stomach down. The stomach and small intestine were counted alone. The large intestine was extended and cut into 3 equally sized pieces, labeled 1 to 3 from caecum to rectum. Each section was counted individually. Feces, labeled 4, were collected, weighed, and counted. The geometric center (GC) of the large intestine/feces portion of the GI tract was calculated according to GC=(Σ(i×Ci))/(ΣCi), where i is the label of the segment (from 1 to 4) and Ci is the number of counts. GC is a number between 1 and 4. The closer GC is to 4, the faster the intestinal transit. Between 7 and 12 mice were used for each dose group. Gastric retention was calculated as percent of total dose counted. Gastric retentions between compound-dosed and vehicle-dosed animals were compared using a one-way ANOVA test and a Dunnett post-test. GC's and feces weights were compared between compound- and vehicle-dosed animals using a similar statistical methodology. In all cases, a P-value of less than 0.05 was considered statistically significant.

[4] = X = compound falls in class +, read-out: EC50, class + (>1000 nM)
[5] = compound falls in class +++, read-out: EC50, class +++ (<500 nM)

T1 sequence (P41231 whole entry): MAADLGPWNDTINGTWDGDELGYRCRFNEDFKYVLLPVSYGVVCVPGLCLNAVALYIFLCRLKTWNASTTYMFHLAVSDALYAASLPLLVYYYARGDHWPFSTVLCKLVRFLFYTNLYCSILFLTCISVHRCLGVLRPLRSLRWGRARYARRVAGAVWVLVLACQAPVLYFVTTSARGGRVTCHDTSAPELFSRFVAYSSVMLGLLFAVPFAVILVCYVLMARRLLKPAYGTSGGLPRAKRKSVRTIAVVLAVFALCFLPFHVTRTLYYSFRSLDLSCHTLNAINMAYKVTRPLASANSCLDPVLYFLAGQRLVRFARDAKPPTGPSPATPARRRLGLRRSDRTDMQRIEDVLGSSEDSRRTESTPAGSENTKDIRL

SMILES	EC50 (P2Y2 receptor; [4]) [µM]	EC50 (P2Y2 receptor; [5]) [µM]	geometric center (GC) of the small intestine (male Balb/C mice [2])	stomach retention, percentage of total radioactivity left in the stomach (male Balb/C mice [2])	also measured
O=P(O)(O)OP(=O)(O)OP(=O)(O)OC[C@H]1O[C@@H](Oc2cccnc2)[C@H](O)[C@@H]1O [Compound M, 3-Pyridyl-β-D-ribofuranosid-5′-triphosphate]	> 1	–	–	–	–
O=P(O)(O)OP(=O)(O)OP(=O)(O)OC[C@H]1O[C@@H](CNc2cccnc2)[C@H](O)[C@@H]1O [Compound K, ((2R,3S,4R,5S)-3,4-Dihydroxy-5-((pyridin-3-ylamino)methyl)tetrahydrofuran-2-yl)methyltriphosphoric acid]	> 1	–	–	–	–
COc1ccc(O[C@@H]2O[C@H](COP(=O)(O)OP(=O)(O)OP(=O)(O)OC[C@H]3O[C@@H](n4cnc5c(=N)n(C)cnc54)[C@H](O)[C@@H]3O)[C@@H](O)[C@H]2O)cc1 [Compound E]	> 1	–	–	–	–
CNc1c2ncn([C@@H]3O[C@H](COP(=O)(O)OP(=O)(O)OP(=O)(O)OP(=O)(O)OC[C@H]4O[C@@H](Oc5ccc(OC)cc5)[C@H](O)[C@@H]4O)[C@@H](O)[C@H]3O)c2nc[n+]1C [Compound D]	–	< 0.5	–	–	–
COc1ccc(N(C)C[C@@H]2O[C@H](COP(=O)(O)OP(=O)(O)OP(=O)(O)O)[C@@H](O)[C@H]2O)cc1 [Compound J, ((2R,3S,4R)-3,4-dihydroxy-5-(((4-methoxyphenyl)(methyl)amino)methyl)tetrahydrofuran-2-yl)methyltriphosphoric acid]	> 1	–	–	–	–
COc1ccc(O[C@@H]2O[C@H](COP(=O)(O)OP(=O)(O)OP(=O)(O)OP(=O)(O)OC[C@H]3O[C@@H](n4cnc5c(=N)n(C)cnc54)[C@H](O)[C@@H]3O)[C@@H](O)[C@H]2O)cc1 [Compound C]	–	< 0.5	No statistical significance was observed	No statistical significance was found	total weight of feces (wet, dry) and water content produced during 3 hours (male Balb/C mice [1]; 3 hrs after dosing, FIG. 2): dose-dependent increase in wet, and dry feces, as well as in water content; time to first red-colored feces (total GI transit time) (male Balb/C mice [1]; vs vehicle, FIG. 1): time to first red pellet decreases with increasing dose; gastric retention (percentage of total radioactivity left in stomach) (male Balb/C mice [3]): virtually no effect on gastric retention; geometric center (GC) of the large intestine and feces (male Balb/C mice [3]; oral 5, 10 and 50 mg/kg, FIG. 7): calculated large intestine geometric center increases with increasing dose; percentage of total radioactivity found in the feces (male Balb/C mice [3]; oral 5, 10 and 50 mg/kg, FIG. 8): dose-dependent increase of % total radioactivity starting at 5 mg/kg dose at a percentage equivalent to that obtained with lubiprostone and tegaserod; dose with statistically significant effect on large intestine transit (male Balb/C mice [3]; oral, P<0.05 vs vehicle): ≥ 10 mg/kg; geometric center (GC) of the large intestine, effect compared with reference drugs (male Balb/C mice [3]; compound C 5 mg/kg oral): equivalent to that obtained with doses of lubiprostone (0.1 mg/kg) and tegaserod (0.1 mg/kg)
COc1ccc(O[C@@H]2O[C@H](COP(=O)(O)OP(=O)(O)OP(=O)(O)OP(=O)(O)OC[C@H]3O[C@@H](c4c[nH]c(=O)[nH]c4=O)[C@H](O)[C@@H]3O)[C@@H](O)[C@H]2O)cc1 [Compound N]	–	–	–	–	EC50 (P2Y2 receptor; X in this column = compound falls in class ++, read-out: EC50, class ++ (500-1000 nM)): 0.5 to 1 µM
CCCCC(F)(F)[C@@]1(O)CC[C@H]2[C@@H](CC(=O)[C@@H]2CCCCCCC(=O)O)O1 [lubiprostone]	–	–	No statistical significance was observed	No statistical significance was found	gastric retention (percentage of total radioactivity left in stomach) (male Balb/C mice [3]): significant delay in gastric emptying
Cn1cnc2c(ncn2[C@@H]2O[C@H](COP(=O)(O)OP(=O)(O)OP(=O)(O)O)[C@@H](O)[C@H]2O)c1=N [Compound P, 1-Methyl-Adenosine-5′-triphosphate]	–	< 0.5	–	–	–
[H]/N=C(/NCCCCC)N/N=C/c1c[nH]c2ccc(OC)cc12 [tegaserod]	–	–	No statistical significance was observed	statistically significance for tegaserod versus vehicle using Student's t-test	–
